Earlier results on one molecule are cited in US20240415910A1, “Toxicity-Removed and Medicinal Effect-Retained Fuzi Decoction Granule and Preparation Method Thereof” (Zhejiang Chinese Medical University, priority 2023, published 2024).

The conditions of data set [1]: oral administration.
The conditions of data set [2]: water and ethanol.

For `CCN1C[C@]2(COC)[C@H](O)C[C@H](OC)[C@@]34[C@@H]5C[C@@]6(O)[C@H](OC(=O)c7ccccc7)[C@@H]5[C@@](OC(C)=O)([C@@H]([C@H](OC)[C@H]23)[C@@H]14)[C@@H](O)[C@@H]6OC` [Aconitine], the “oral amount that can cause poisoning reactions” value in data set [1] is reported as 0.2 mg. Further, the solubility result in data set [2] was “soluble in both water and ethanol”.
